Test results as given in US20140220690A1, “MAMMALIAN GENES INVOLVED IN INFECTION” (priority 2009, published 2014).

Experiments:
herpes simplex virus = format: cell-based

Structure (SMILES) | % Effectiveness (vaccinia virus) [%] | Effective (vaccinia virus) | Effective [uM] (vaccinia virus) [µM] | inhibition of vaccinia virus infection (in words) (vaccinia virus) | state of the cells (vaccinia virus) | spread of virus over time (vaccinia virus) | reversal of the antiviral effect of anisomycin (herpes simplex virus)
C[C@]12CC[C@@H]3c4ccc(O)cc4CC[C@H]3[C@@H]1CC[C@@H]2O [17-B Estradiol, 17-B-Estradiol] | 50 | ✓ | 100 | inhibited infection with vaccinia virus | – | – | –
COc1ccc(C[C@@H]2NC[C@@H](O)[C@@H]2OC(C)=O)cc1 [ANISOMYCIN, [(2S,3R,4R)-4-hydroxy-2-[(4-methoxyphenyl)methyl]pyrrolidin-3-yl]acetate] | – | – | – | – | the cells were healthy | – | –
CC(C)(c1ccc(OCC2CO2)cc1)c1ccc(OCC2CO2)cc1 (stereo not drawn) [BADGE] | 75 | ✓ | 50 to 100 | inhibited infection with vaccinia virus | – | – | –
C[C@]12CC[C@H](O)CC1=CC[C@@H]1[C@@H]2CC[C@]2(C)C(=O)CC[C@@H]12 [DHEA] | 99 | ✓ | 30 | inhibited infection with vaccinia virus | – | the virus usually starts to spread after day 2 | –
N#CC(=C(/N)Sc1ccccc1N)/C(C#N)=C(\N)Sc1ccccc1N [U0126] | – | – | – | – | – | – | this effect was reversed
